In patent US20120035076A1, “IRAK KINASE FAMILY AS NOVEL TARGET AND BIOMARKER FOR ALZHEIMER” (Vereniging Voor Christelijk Hoger Onderwijs …, priority 2009, published 2012):

Legend:
[1] = test system: IL-6 secretion by human primary astrocytes; experiment: IL-1β induced IL-6 secretion by human primary astrocytes (ELISA); assay type: cell-based; details: IL-1β 10 U/ml, 6 hours, inhibitor 1250, 2500 or 5000 nM
Source text: IL-1β has been implicated in both the initiation and propagation of neuroinflammatory changes seen in Alzheimer's disease patients. One of the main mechanisms of IL-1β is the induction of interleukin 6 (IL-6) secretion, which propagates the neuroinflammatory response in Alzheimer's disease patients. Using primary human adult astrocytes this inflammatory response as well as modulators (i.e. potential drugs for therapy) can be studied in vitro. […] In the presence of IL-1β (10 U/ml) these cells secrete IL-6 in the culture supernatant, which can be measured by ELISA. […] Cells were incubated with or without IL-1β (10 U/ml) for 6 hours in the presence of different concentration of IRAK1/4 inhibitor I (1250, 2500, or 5000 nM). IL-6 levels (pg/ml) in the culture supernatants were determined by ELISA. Shown are mean levels +/−S.D. of three replicate stimulations.

[2] = test system: IL-6 secretion by U373 astrocytoma cells; experiment: IL-1β induced IL-6 secretion by U373 astrocytoma cells (ELISA); assay type: cell-based; details: IL-1β 10 U/ml, 6 hours, inhibitor 1250, 2500 or 5000 nM
[3] = FIG. 1, listed as IRAK1/4 inhibitor

Structure (SMILES): O=C(Nc1nc2ccccc2n1CCN1CCOCC1)c1cccc([N+](=O)[O-])c1 [IRAK1/4 inhibitor I]
- IL-6 secretion in culture supernatant ([1]; FIG. 1): dose-dependently inhibits IL-6 secretion
- IL-6 secretion in culture supernatant [1, 3]: reduced
- IL-6 secretion in culture supernatant ([2]; FIG. 1): dose-dependently inhibits IL-6 secretion
- IL-6 secretion in culture supernatant [2, 3]: reduced
